Reference: ChEMBL document CHEMBL4373717, “Coumarin-containing hybrids and their anticancer activities” (Eur J Med Chem, 2019)
Values after ≈ are worked out from the molar mass of the structure shown.

How the values were obtained:
Caco-2 = assay: Cytotoxicity against human Caco2 cells assessed as reduction in cell viability after 72 hrs by MTT assay; assay type: functional, cell-based; conditions: Caco-2, 72 h
K562 [1] = assay: Cytotoxicity against human K562 cells assessed as reduction in cell viability after 72 hrs by MTT assay; assay type: functional, cell-based; conditions: K562, 72 h
HeLa [2] = assay: Cytotoxicity against human HeLa cells assessed as reduction in cell viability after 72 hrs by MTT assay; assay type: functional, cell-based
MCF7 [3] = assay: Cytotoxicity against human MCF7 cells assessed as reduction in cell viability by MTT assay; assay type: functional, cell-based; conditions: Homo sapiens, MCF7
HepG2 [4] = assay: Cytotoxicity against human HepG2 cells assessed as reduction in cell viability by MTT assay; assay type: functional, cell-based; conditions: Homo sapiens, HepG2
A2780 = assay: Anticancer activity against human A2780 cells by CCK8 assay; assay type: functional, cell-based
OVCAR-3 = assay: Anticancer activity against human OVCAR3 cells by CCK8 assay; assay type: functional, cell-based
HepG2 [5] = assay: Anticancer activity against human HepG2 cells by CCK8 assay; assay type: functional, cell-based
Hep 3B2 = assay: Anticancer activity against human Hep3B cells by CCK8 assay; assay type: functional, cell-based
MDA-MB-231 = assay: Cytotoxicity against human MDA-MB-231 cells assessed as reduction in cell viability after 96 hrs by MTT assay; assay type: functional, cell-based; conditions: MDA-MB-231, 96 h
HT-29 = assay: Cytotoxicity against human HT-29 cells assessed as reduction in cell viability after 96 hrs by MTT assay; assay type: functional, cell-based; conditions: HT-29, 96 h
HCT-116 = assay: Cytotoxicity against human HCT116 cells assessed as reduction in cell viability after 96 hrs by MTT assay; assay type: functional, cell-based; conditions: HCT-116, 96 h
A549 [6] = assay: Cytotoxicity against human A549 cells assessed as reduction in cell viability after 68 hrs by MTT assay; assay type: functional, cell-based; conditions: A549, 68 h
K562 [7] = assay: Cytotoxicity against human K562 cells assessed as reduction in cell viability after 68 hrs by MTT assay; assay type: functional, cell-based; conditions: K562, 68 h
[8] = biological target: RAC-alpha serine/threonine-protein kinase (Homo sapiens, UniProt P31749); assay: Inhibition of AKT phosphorylation in human K562 cells; assay type: cell-based
RAC-alpha serine/threonine-protein kinase, sequence (P31749 whole entry): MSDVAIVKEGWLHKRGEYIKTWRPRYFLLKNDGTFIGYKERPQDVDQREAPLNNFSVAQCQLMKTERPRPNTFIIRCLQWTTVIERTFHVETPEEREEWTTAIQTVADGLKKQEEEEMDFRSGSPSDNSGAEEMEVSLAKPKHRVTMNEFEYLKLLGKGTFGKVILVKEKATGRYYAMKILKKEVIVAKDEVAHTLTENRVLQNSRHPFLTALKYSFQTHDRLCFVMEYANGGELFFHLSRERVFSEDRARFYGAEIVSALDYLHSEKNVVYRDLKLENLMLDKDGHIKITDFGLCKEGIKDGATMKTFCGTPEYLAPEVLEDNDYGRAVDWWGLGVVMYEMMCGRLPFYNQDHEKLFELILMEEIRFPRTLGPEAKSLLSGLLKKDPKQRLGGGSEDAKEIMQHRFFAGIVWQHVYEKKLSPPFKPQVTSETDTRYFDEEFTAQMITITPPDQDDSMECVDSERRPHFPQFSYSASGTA

HeLa [9] = assay: Cytotoxicity against human HeLa cells assessed as reduction in cell viability after 68 hrs by MTT assay; assay type: functional, cell-based
MCF7 [10] = assay: Cytotoxicity against human MCF7 cells assessed as reduction in cell viability after 68 hrs by MTT assay; assay type: functional, cell-based; conditions: MCF7, 68 h
DU-145 = assay: Cytotoxicity against human DU145 cells assessed as reduction in cell viability after 24 hrs by MTT assay; assay type: functional, cell-based; conditions: DU-145, 24 h
BT-20 = assay: Cytotoxicity against human BT20 cells assessed as reduction in cell viability after 24 hrs by MTT assay; assay type: functional, cell-based; conditions: BT-20, 24 h
SK-MEL-28 = assay: Cytotoxicity against human SK-MEL-28 cells assessed as reduction in cell viability after 24 hrs by MTT assay; assay type: functional, cell-based; conditions: SK-MEL-28, 24 h
A549 [11] = assay: Cytotoxicity against human A549 cells assessed as reduction in cell viability after 24 hrs by MTT assay; assay type: functional, cell-based; conditions: A549, 24 h
A549 [12] = assay: Cytotoxicity against human A549 cells assessed as reduction in cell viability by MTT assay; assay type: functional, cell-based

O=c1cc(Cn2cc(-c3ccccc3)nn2)c2cc(O)c(O)cc2o1 gave an IC50 (Caco-2) of 9.7 to 81.9 µM, an IC50 (K562 [1]) of 9.7 to 81.9 µM and an IC50 (HeLa [2]) of 9.7 to 81.9 µM.

With Cc1ccc2oc(=O)cc(CSc3nc(-c4ccccc4)c(C#N)c(N4CCNCC4)n3)c2c1 the IC50 (MCF7 [3]) was 5.5 to 91.1 µM and the IC50 (HepG2 [4]) was 5.5 to 91.1 µM.

CCN(CC)c1ccc2cc(C(=O)N3CCN(CCC[C@H]4O[C@@H]5O[C@@]6(C)CC[C@H]7[C@H](C)CC[C@@H]([C@H]4C)[C@@]57OO6)CC3)c(=O)oc2c1 gave an IC50 (A2780) of 3.05 to 5.82 µM, an IC50 (OVCAR-3) of 3.05 to 5.82 µM and an IC50 (HepG2 [5]) of 3.05 to 5.82 µM. The IC50 (Hep 3B2) was 3.05 to 5.82 µM.

Cc1cc(C)c2c(Cn3cc(CO[C@H]4O[C@@H]5O[C@@]6(C)CC[C@H]7[C@H](C)CC[C@@H]([C@H]4C)[C@@]57OO6)nn3)cc(=O)oc2c1 gave an IC50 (MDA-MB-231) of 8.57 to 100 µM, an IC50 (HT-29) of 8.57 to 100 µM and an IC50 (HCT-116) of 8.57 to 100 µM.

In the case of Cc1c(Cc2ccc(NC(=O)Nc3ccccc3Cl)nc2)c(=O)oc2cc(O)c(C(C)(C)C)cc12, the IC50 (A549 [6]) is reported as 1.66 to 9.27 µM, the IC50 (K562 [7]) is reported as 1.66 to 9.27 µM and the IC50 [8] is reported as < 10 µM. The IC50 (HeLa [9]) was 1.66 to 9.27 µM and the IC50 (MCF7 [10]) was 1.66 to 9.27 µM.

For C[C@H]1[C@@H](OCc2cn(Cc3cc(=O)oc4cc(O)ccc34)nn2)O[C@@H]2O[C@@]3(C)CC[C@H]4[C@H](C)CC[C@@H]1[C@@]24OO3, the IC50 (MDA-MB-231) was 8.57 to 100 µM, the IC50 (HT-29) was 8.57 to 100 µM and the IC50 (HCT-116) was 8.57 to 100 µM.

Cc1ccc2oc(=O)cc(Cn3cc(CO[C@H]4O[C@@H]5O[C@@]6(C)CC[C@H]7[C@H](C)CC[C@@H]([C@H]4C)[C@@]57OO6)nn3)c2c1 gave an IC50 (MDA-MB-231) of 8.57 to 100 µM, an IC50 (HT-29) of 8.57 to 100 µM and an IC50 (HCT-116) of 8.57 to 100 µM.

CCN(CC)c1ccc2cc(C(=O)N3CCN(C(=O)CN4CCN(CCC[C@H]5O[C@@H]6O[C@@]7(C)CC[C@H]8[C@H](C)CC[C@@H]([C@H]5C)[C@@]68OO7)CC4)CC3)c(=O)oc2c1 gave an IC50 (A2780) of 2.33 to 23.7 µM, an IC50 (OVCAR-3) of 2.33 to 23.7 µM and an IC50 (HepG2 [5]) of 2.33 to 23.7 µM. It also gave an IC50 (Hep 3B2) of 2.33 to 23.7 µM.

For O=C(Cn1nc(Cc2ccc(Br)cc2)[nH]c1=O)NNC(=O)c1cc2cc(Cl)cc(Cl)c2oc1=O, the IC50 (DU-145) was 3.1 to 37.9 µg/mL (≈ 5.47 to 66.8 µM), the IC50 (BT-20) was 3.1 to 37.9 µg/mL (≈ 5.47 to 66.8 µM) and the IC50 (SK-MEL-28) was 3.1 to 37.9 µg/mL (≈ 5.47 to 66.8 µM). For the same compound, the IC50 (A549 [11]) was 3.1 to 37.9 µg/mL (≈ 5.47 to 66.8 µM).

CCN(CC)c1ccc2cc(C(=O)NCCNC(=O)CN3CCN(CCC[C@H]4O[C@@H]5O[C@@]6(C)CC[C@H]7[C@H](C)CC[C@@H]([C@H]4C)[C@@]57OO6)CC3)c(=O)oc2c1 showed an IC50 (A2780) of 2.33 to 23.7 µM, an IC50 (OVCAR-3) of 2.33 to 23.7 µM and an IC50 (HepG2 [5]) of 2.33 to 23.7 µM. The IC50 (Hep 3B2) was 2.33 to 23.7 µM.

With Cc1c(Cc2ccc(NC(=O)Nc3cccc(Cl)c3)nc2)c(=O)oc2cc(O)c(C(C)(C)C)cc12 the IC50 (A549 [6]) was 1.66 to 9.27 µM, the IC50 (K562 [7]) was 1.66 to 9.27 µM and the IC50 [8] was < 10 µM. It also gave an IC50 (HeLa [9]) of 1.66 to 9.27 µM and an IC50 (MCF7 [10]) of 1.66 to 9.27 µM.

For COc1ccc(NC(=O)Nc2ccc(Cc3c(C)c4cc(C(C)(C)C)c(O)cc4oc3=O)cn2)cc1, the IC50 (A549 [6]) was 1.66 to 9.27 µM, the IC50 (K562 [7]) was 1.66 to 9.27 µM and the IC50 [8] was < 10 µM. For the same compound, the IC50 (HeLa [9]) was 1.66 to 9.27 µM and the IC50 (MCF7 [10]) was 1.66 to 9.27 µM.

Work on Cc1ccc2oc(=O)cc(CSc3nc(-c4ccccc4)c(C#N)c(N4CCOCC4)n3)c2c1 yielded an IC50 (MCF7 [3]) of 5.5 to 91.1 µM and an IC50 (HepG2 [4]) of 5.5 to 91.1 µM.

CCN(CC)c1ccc2cc(C(=O)NNC(=O)Cn3nc(Cc4cccc(Br)c4)[nH]c3=O)c(=O)oc2c1 was tested, and the IC50 (DU-145) was 3.1 to 37.9 µg/mL (≈ 5.44 to 66.6 µM), the IC50 (BT-20) was 3.1 to 37.9 µg/mL (≈ 5.44 to 66.6 µM) and the IC50 (SK-MEL-28) was 3.1 to 37.9 µg/mL (≈ 5.44 to 66.6 µM). The IC50 (A549 [11]) was 3.1 to 37.9 µg/mL (≈ 5.44 to 66.6 µM).

With COc1ccccc1-c1cn(Cc2cc(=O)oc3cc(O)c(O)cc23)nn1 the IC50 (Caco-2) was 9.7 to 81.9 µM, the IC50 (K562 [1]) was 9.7 to 81.9 µM and the IC50 (HeLa [2]) was 9.7 to 81.9 µM.

For CCN(CC)c1ccc2cc(C(=O)NNC(=O)Cn3nc(Cc4ccc(Cl)c(Cl)c4)[nH]c3=O)c(=O)oc2c1, the IC50 (DU-145) was 3.1 to 37.9 µg/mL (≈ 5.54 to 67.7 µM), the IC50 (BT-20) was 3.1 to 37.9 µg/mL (≈ 5.54 to 67.7 µM) and the IC50 (SK-MEL-28) was 3.1 to 37.9 µg/mL (≈ 5.54 to 67.7 µM). It also gave an IC50 (A549 [11]) of 3.1 to 37.9 µg/mL (≈ 5.54 to 67.7 µM).

Cc1ccc2oc(=O)cc(CSc3nc(NCc4ccccc4)c(C#N)c(-c4ccccc4)n3)c2c1 showed an IC50 (MCF7 [3]) of 5.5 to 91.1 µM and an IC50 (HepG2 [4]) of 5.5 to 91.1 µM.

With Cc1c(Cc2ccc(NC(=O)Nc3ccc(F)cc3)nc2)c(=O)oc2cc(O)c(C(C)(C)C)cc12 the IC50 (A549 [6]) was 1.66 to 9.27 µM, the IC50 (K562 [7]) was 1.66 to 9.27 µM and the IC50 [8] was < 10 µM. The IC50 (HeLa [9]) was 1.66 to 9.27 µM and the IC50 (MCF7 [10]) was 1.66 to 9.27 µM.

In the case of Cc1cc(=O)oc2cc(NC(=O)CNCc3cccnc3)ccc12, the IC50 (MCF7 [3]) is reported as 69.1 to 378 µM and the IC50 (A549 [12]) is reported as 69.1 to 378 µM.

Compound Cc1ccc2oc(=O)cc(CSc3nc(NN)c(C#N)c(-c4ccccc4)n3)c2c1 has an IC50 (MCF7 [3]) of 6.9 µM and an IC50 (HepG2 [4]) of 5.5 µM.
